Laboratory results taken from BindingDB's records for doi:10.1016/j.bmcl.2014.04.013 (University of Utah, 2014).

Assay: Agonist activity at AHR in FVB/N mouse primary mammary epithelial cells assessed as blockade of mammary branching morphogenesis after 144 hrs by microscopic analysis in presence of FGF2

| SMILES | EC50 [µM] |
| --- | --- |
| O=[N+]([O-])c1cc(F)ccc1-c1nc(-c2ccccc2)no1 | 2.2 |
| Clc1ccc(-c2nc(-c3ccccc3)no2)c(Cl)c1 | 1.2 |
| Nc1cc(Cl)ccc1-c1nc(-c2ccccc2)no1 | 1.4 |

Now from value to compound:

| EC50 [µM] | SMILES |
| --- | --- |
| > 10 | Clc1ccc(-c2nc(-c3ccccc3)no2)c(Cl)c1Cl |
| 3.2 | Nc1cc(C(F)(F)F)ccc1-c1nc(-c2ccccc2)no1 |
